From patent publication US20240208992A1, “MACROCYCLES AS CFTR MODULATORS” (Idorsia Pharmaceuticals Ltd, priority 2021, published 2024)

Biological target: human F508del-CFTR (Homo sapiens, UniProt P13569, DEL508-508)
Experiment: F508del-CFTR cell surface expression (corrector activity), DiscoveRx ß-galactosidase complementation chemiluminescence assay in recombinant U2OS cell line;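 also: U2OS cells co-expressing ProLink-tagged F508del-CFTR and a membrane-anchored enzyme acceptor, where more surface CFTR restores β-galactosidase activity measured by chemiluminescence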
Details: for EC50: EC50, F508del-CFTR cell surface expression, U2OS cells, 16h compound incubation, geomean values; for Emax: U2OS, in relation to Emax of corrector lumacaftor (=100%), arithmetic mean values

human F508del-CFTR, sequence (P13569 with tags, fused parts or gaps DEL508-508): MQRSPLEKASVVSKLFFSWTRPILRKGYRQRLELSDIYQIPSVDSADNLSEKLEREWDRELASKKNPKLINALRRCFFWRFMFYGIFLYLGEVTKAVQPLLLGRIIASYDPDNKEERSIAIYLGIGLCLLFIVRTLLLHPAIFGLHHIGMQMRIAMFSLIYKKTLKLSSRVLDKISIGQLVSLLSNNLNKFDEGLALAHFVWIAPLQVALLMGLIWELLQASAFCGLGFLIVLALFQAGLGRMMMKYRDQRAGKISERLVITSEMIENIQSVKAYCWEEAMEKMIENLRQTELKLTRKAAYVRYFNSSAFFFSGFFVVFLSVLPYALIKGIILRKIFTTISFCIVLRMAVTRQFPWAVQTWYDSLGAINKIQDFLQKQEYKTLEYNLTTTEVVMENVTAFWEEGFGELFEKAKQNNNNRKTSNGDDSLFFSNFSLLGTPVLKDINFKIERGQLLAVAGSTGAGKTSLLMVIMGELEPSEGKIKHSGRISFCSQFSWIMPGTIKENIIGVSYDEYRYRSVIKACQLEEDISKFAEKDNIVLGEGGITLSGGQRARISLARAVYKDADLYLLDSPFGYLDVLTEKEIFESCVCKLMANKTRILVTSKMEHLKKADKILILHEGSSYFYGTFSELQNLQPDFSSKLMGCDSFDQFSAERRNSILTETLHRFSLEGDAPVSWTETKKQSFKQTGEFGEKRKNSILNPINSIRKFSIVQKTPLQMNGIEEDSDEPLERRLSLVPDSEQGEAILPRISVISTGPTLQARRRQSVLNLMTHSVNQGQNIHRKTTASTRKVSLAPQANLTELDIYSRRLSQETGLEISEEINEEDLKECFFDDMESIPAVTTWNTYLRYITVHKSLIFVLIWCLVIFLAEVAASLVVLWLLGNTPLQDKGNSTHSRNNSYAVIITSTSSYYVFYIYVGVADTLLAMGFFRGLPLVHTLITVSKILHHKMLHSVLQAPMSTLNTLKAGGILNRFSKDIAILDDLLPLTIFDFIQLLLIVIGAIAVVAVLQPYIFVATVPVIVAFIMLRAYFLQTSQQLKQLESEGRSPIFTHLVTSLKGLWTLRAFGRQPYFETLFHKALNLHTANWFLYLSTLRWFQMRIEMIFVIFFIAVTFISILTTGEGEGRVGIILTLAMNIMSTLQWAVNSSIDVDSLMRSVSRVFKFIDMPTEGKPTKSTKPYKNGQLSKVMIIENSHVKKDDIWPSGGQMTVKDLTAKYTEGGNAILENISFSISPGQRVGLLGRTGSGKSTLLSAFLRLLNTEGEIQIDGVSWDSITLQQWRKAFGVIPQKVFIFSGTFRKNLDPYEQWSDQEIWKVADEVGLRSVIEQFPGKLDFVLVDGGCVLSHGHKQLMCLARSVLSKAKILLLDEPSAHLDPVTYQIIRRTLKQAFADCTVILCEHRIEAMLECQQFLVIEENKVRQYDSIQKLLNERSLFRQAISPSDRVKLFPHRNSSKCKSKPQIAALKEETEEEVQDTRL

| Structure (SMILES) | EC50 [nM] | Emax [%] |
| --- | --- | --- |
| Cc1nc2ccc3c(c2o1)C(=O)N[C@H](C(=O)NCCc1cccc(OC(F)F)c1)CC(=O)N(C)[C@@H](CC(C)C)C(=O)N1CCN(CC2CC2)C[C@@H]1C(=O)N[C@H](Cc1ccccc1)CO3 [Example 426, (8S,12S,18aR,21R)-21-benzyl-17-(cyclopropylmethyl)-N-(3-(difluoromethoxy)phenethyl)-12-isobutyl-4,11-dimethyl-6,10,13,19-tetraoxo-6,7,8,9,10,11,12,13,16,17,18,18a,19,20,21,22-hexadecahydro-15H-oxazolo[4′,5′:5,6]benzo[1,2-p]pyrazino[2,1-f][1]oxa[4,7,10,14]tetraazacycloheptadecine-8-carboxamide] | 269 | 217 |
| CCOc1cccc(CCNC(=O)[C@@H]2CC(=O)N(C)[C@@H](CC(C)C)C(=O)N3CCN(CC4CC4)C[C@@H]3C(=O)N[C@H](Cc3ccccc3)COc3ccc4nc(C)oc4c3C(=O)N2)c1 [Example 427, (8S,12S,18aR,21R)-21-benzyl-17-(cyclopropylmethyl)-N-(3-ethoxyphenethyl)-12-isobutyl-4,11-dimethyl-6,10,13,19-tetraoxo-6,7,8,9,10,11,12,13,16,17,18,18a,19,20,21,22-hexadecahydro-15H-oxazolo[4′,5′:5,6]benzo[1,2-p]pyrazino[2,1-f][1]oxa[4,7,10,14]tetraazacycloheptadecine-8-carboxamide] | 248 | 274 |
| Cc1nc2ccc3c(c2o1)C(=O)N[C@H](C(=O)NCCc1ccc(-n2nccn2)cc1)CC(=O)N(C)[C@@H](CC(C)C)C(=O)N1CCN(CC2CC2)C[C@@H]1C(=O)N[C@H](Cc1ccccc1)CO3 [Example 428, (8S,12S,18aR,21R)-N-(4-(2H-1,2,3-triazol-2-yl)phenethyl)-21-benzyl-17-(cyclopropylmethyl)-12-isobutyl-4,11-dimethyl-6,10,13,19-tetraoxo-6,7,8,9,10,11,12,13,16,17,18,18a,19,20,21,22-hexadecahydro-15H-oxazolo[4′,5′:5,6]benzo[1,2-p]pyrazino[2,1-f][1]oxa[4,7,10,14]tetraazacycloheptadecine-8-carboxamide] | 614 | 218 |
| Cc1cc(CCNC(=O)[C@@H]2CC(=O)N(C)[C@@H](CC(C)C)C(=O)N3CCCC[C@@H]3C(=O)N[C@H](Cc3ccccc3)COc3ccc4c(cnn4C)c3C(=O)N2)on1 [Example 429, (8S,12S,18aR,21R)-21-benzyl-12-isobutyl-3,11-dimethyl-N-(2-(3-methylisoxazol-5-yl)ethyl)-6,10,13,19-tetraoxo-6,7,8,9,10,11,12,13,16,17,18,18a,19,20,21,22-hexadecahydro-3H,15H-pyrido[2′,11:6,7][1]oxa[4,7,10,14]tetraazacycloheptadecino[16,17-e]indazole-8-carboxamide] | 606 | 224 |
| CC(C)C[C@H]1C(=O)N(C)CC(=O)N[C@H](Cc2ccccc2)COc2nc3ccccn3c2C(=O)N[C@H](C(=O)NCCc2ccc3c(c2)OCO3)CC(=O)N1C [Example 430, (3R,9S,13S)-N-(2-(benzo[d][1,3]dioxol-5-yl)ethyl)-3-benzyl-9-isobutyl-7,10-dimethyl-5,8,11,15-tetraoxo-2,3,4,5,6,7,8,9,10,11,12,13,14,15-tetradecahydropyrido[2′,11:2,3]imidazo[4,5-p][1]oxa[4,7,10,14]tetraazacycloheptadecine-13-carboxamide] | 964 | 194 |
| COCCCN1C(=O)[C@H](CC(C)C)N(C)C(=O)C[C@@H](C(=O)NCCc2cccc(OC)c2)NC(=O)c2c(ccc3ccccc23)OC[C@@H](Cc2ccccc2)NC(=O)[C@H]1C [Example 431, (3S,7S,10R,13R)-13-benzyl-7-isobutyl-N-(3-methoxyphenethyl)-9-(3-methoxypropyl)-6,10-dimethyl-1,5,8,11-tetraoxo-1,2,3,4,5,6,7,8,9,10,11,12,13,14-tetradecahydronaphtho[1,2-p][1]oxa[4,7,10,14]tetraazacycloheptadecine-3-carboxamide] | 208 | 281 |
| Cc1cc(CCNC(=O)[C@@H]2CC(=O)N(C)[C@@H](CC3CCCC3)C(=O)N(C)C3(CC3)C(=O)N[C@H](Cc3ccccc3)COc3cnc4ccccc4c3C(=O)N2)on1 [Example 432, (3′S,7′S,13′R)-13′-benzyl-7′-(cyclopentylmethyl)-6′,9′-dimethyl-N-(2-(3-methylisoxazol-5-yl)ethyl)-1′,5′,8′,11′-tetraoxo-2′,3′,4′,5′,6′,7′,8′,9′,11′,12′,13′,14′-dodecahydro-1′H-spiro[cyclopropane-1,10′-[1]oxa[4,7,10,14]tetraazacycloheptadecino[17,16-c]quinoline]-3′-carboxamide] | 474 | 413 |
| COc1cccc(CCNC(=O)[C@@H]2CC(=O)N(C)[C@@H](CC(C)C)C(=O)N(C)C3(CC3)C(=O)N[C@H](Cc3ccccc3)COc3cnc4ccccc4c3C(=O)N2)c1 [Example 433, (3′S,7′S,13′R)-13′-benzyl-7′-isobutyl-N-(3-methoxyphenethyl)-6′,9′-dimethyl-1′,5′,8′,11′-tetraoxo-2′,3′,4′,5′,6′,7′,8′,9′,11′,12′,13′,14′-dodecahydro-1′H-spiro[cyclopropane-1,10′-[1]oxa[4,7,10,14]tetraazacycloheptadecino[17,16-c]quinoline]-3′-carboxamide] | 167 | 344 |
| Cc1cc(CCNC(=O)[C@@H]2CC(=O)N(C)[C@@H](CC(C)C)C(=O)N(C)C3(CC3)C(=O)N[C@H](Cc3ccccc3)COc3cnc4ccccc4c3C(=O)N2)on1 [Example 434, (3′S,7′S,13′R)-13′-benzyl-7′-isobutyl-6′,9′-dimethyl-N-(2-(3-methylisoxazol-5-yl)ethyl)-1′,5′,8′,11′-tetraoxo-2′,3′,4′,5′,6′,7′,8′,9′,11′,12′,13′,14′-dodecahydro-1′H-spiro[cyclopropane-1,10′-[1]oxa[4,7,10,14]tetraazacycloheptadecino[17,16-c]quinoline]-3′-carboxamide] | 664 | 327 |
| Cc1cc(CCNC(=O)[C@@H]2CC(=O)N(C)[C@@H](CC3CCCC3)C(=O)N3CCOC[C@@H]3C(=O)N[C@H](Cc3ccccc3)COc3ccc4nc(C)oc4c3C(=O)N2)on1 [Example 435] | 895 | 119 |
| Cc1cc(CCNC(=O)[C@@H]2CC(=O)N(C)[C@@H](CC3CCCC3)C(=O)N3CCCC[C@@H]3C(=O)N[C@H](Cc3ccccc3)COc3ccc4nc(C)oc4c3C(=O)N2)on1 [Example 436, (8S,12S,18aR,21R)-21-benzyl-12-(cyclopentylmethyl)-4,11-dimethyl-N-(2-(3-methylisoxazol-5-yl)ethyl)-6,10,13,19-tetraoxo-6,7,8,9,10,11,12,13,16,17,18,18a,19,20,21,22-hexadecahydro-15H-oxazolo[4′,5′:5,6]benzo[1,2-p]pyrido[2,1-f][1]oxa[4,7,10,14]tetraazacycloheptadecine-8-carboxamide] | 458 | 300 |
| Cc1cc(CCNC(=O)[C@@H]2CC(=O)N(C)[C@@H](CC3CCCC3)C(=O)N3CCCC[C@H]3C(=O)N[C@H](Cc3ccccc3)COc3ccc4nc(C)oc4c3C(=O)N2)on1 [Example 437, (8S,12S,18aS,21R)-21-benzyl-12-(cyclopentylmethyl)-4,11-dimethyl-N-(2-(3-methylisoxazol-5-yl)ethyl)-6,10,13,19-tetraoxo-6,7,8,9,10,11,12,13,16,17,18,18a,19,20,21,22-hexadecahydro-15H-oxazolo[4′,5′:5,6]benzo[1,2-p]pyrido[2,1-f][1]oxa[4,7,10,14]tetraazacycloheptadecine-8-carboxamide] | 844 | 159 |
